# Data as given in patent US20180339016A1 (priority 2015, published 2018).
# Several values for one entry are separate records, joined by “and”; a condition that tells them apart may be missing. Identical values can stand only once. Like-named read-outs stand apart in the source and are kept apart here.
# Columns and labels:
# [1] = test system: E. coli; test: NPN fluorescence, penetration into outer membrane; format: cell-based; details: FIG. 5
# Description: Penetration into the microbial outer membrane was measured by the fluorescence intensity of NPN-treated E. coli (λex=355 nm, λem=405 nm). An E. coli suspension (8×10^7 cells/mL) was centrifuged at 13000 rpm at 25° C. for 10 minutes, and suspended in 5 mM HEPES buffer (pH 7.2). NPN was added to the E. coli suspension to a final NPN concentration of 5 μM. The fluorescence intensity of the E. coli suspension was measured using the FL-55 fluorometer. The peptide together with 5 μM NPN was added to the E. coli suspension.
# [2] = test system: E. coli ATCC 25922; test: Antibiotic interaction assay (Wimley), 2/3 broth microdilution: MIC alone, MIC of combination, FICI; format: cell-based
# Description: Synergy was evaluated by an antibiotic interaction assay (Wimley, 2015) Using the method of Wimley (BBA, 2015, v. 1848(1), pp. 8-15), synergy between the membrane-activating peptide and an antibiotic was measured by an FICI value (FIG. 17). […] Thus, to accurately examine synergy, a ⅔ dilution method which observes MIC at denser concentration intervals is advantageous over a ½ dilution method in statistical terms. […] In the same manner, the MIC of an antibiotic or repositioning drug (second line) is measured. In the third line, the two compounds are mixed after putting half amount each, and the MIC thereof is measured.
# A broth microdilution technique (⅔ dilution) was used together with an MH broth. E. coli treated with an antibiotic and the peptide was incubated in a 37° C. incubator for 18 hours.
# (§1) To measure the synergy between the membrane-activating peptides and the repositioning drug, a 10× compound was prepared, and then serially diluted ⅔-fold with distilled water. An MH broth (900 μl) was added to and mixed with the 10× compound (100 μl), and then 200 μL of the mixture was taken and added to a 96-well plate. E. coli cultured for one day was adjusted to 0.5 MCF using MCFarland, and diluted 10-fold, and then 10 μl of the dilution was added to each well of the plate (5×10^5 CFU/mL). After addition of the bacterial cells, plate was incubated at 37° C. for 18 hours, and then the OD value at UV-Vis (600 nm) was measured. Cell viability (%)=(OD600 of sample−OD600 of negative control)/(OD600 of positive control−OD600 of negative control)×100.
# [3] = test system: E. coli; test: SYTOX Green membrane penetrability by FACS; format: cell-based; details: FIG. 6
# Description: In the second experiment, whether the peptides would have the ability to disrupt both the outer wall and inner wall of bacteria was examined. To this end, the fluorescent dye Sytox Green capable of specifically staining DNA was used, and penetrability into the microbial membrane was evaluated from the average fluorescence intensity of E. coli treated with SYTOX Green. An E. coli suspension (2×10^8 cells/mL) was incubated with the three peptides in the presence of SYTOX Green (2.5 μM) for 10 minutes, respectively. Penetrability was quantified by a (fluorescence activated cell sorter (FACS). The average fluorescence intensity of 1×10^4 gate cells was measured. Melittin (control) is a pore-forming peptide that disrupts the microbial cell membrane.
# [4] = test system: E. coli ATCC 25922; details: Table 4; for MIC (μM) against E. coli ATCC 25922, Peptide alone: bacterial growth <10% of control
# [5] = test system: Escherichia coli (ATCC 25922); details: peptide alone; peptide concentration required to inhibit growth by 20% (so in the source)
# Description: (§2) The N-terminus of the peptides were acetylated and the C-terminus was amidated. The kinked structure can rapidly reduce the alpha-helical content, thereby greatly reducing the toxicity of the peptide against host cells. In addition, because of the potential to show specificity for the Gram-negative bacterial membrane, Pro-mutants were prepared by site-directed mutagenesis. Using the prepared peptides, their MIC for the Gram-negative bacterium E. coli and the Gram-positive bacterium S. aureus and their hemolytic activity for host cells were examined (Table 1).
# as §1
# [6] = test system: Staphylococcus aureus (ATCC 29213); test: MIC of peptide against S. aureus; format: cell-based; details: peptide alone
# Description: as §2
# [7] = test system: E. coli NDm-1; test: Confocal microscopy of TAMRA-conjugated peptide; format: cell-based; details: 2.5 μM peptide, 30 minutes, FIG. 8
# Description: E. coli NDm-1 was diluted when it reached OD600=0.5. The microorganism was treated with 2.5 μM of the peptide in a 37° C. incubator for 30 minutes. LK-L12P was used as a positive control.
# [8] = labelled peptide + colistin + linezolid
# [9] = three compounds: labelled peptide + colistin + linezolid
compound,measurement,setting,value
colistin,NPN fluorescence: touching/loosening the outer membrane,[1],had the property of touching the outer membrane and entering the outer membrane
same,lowering of MIC in combination KL-L9P/colistin/linezolid versus alone,[2],16 fold
same,MIC when the three compounds were used alone,[2]; Example 7,0.8 µM
same,"MIC (μM) against E. coli ATCC, combination of 3 compounds","[2]; KL-L9P + colistin + (S)-ibuprofen, concentration of labelled component",0.08 µM
same,"MIC (μM) against E. coli ATCC, combination of 3 compounds","[2]; KL-L9P + colistin + cloxacillin, concentration of labelled component",0.08 µM
same,"MIC (μM) against E. coli ATCC, combination of 3 compounds","[2]; KL-L9P + colistin + curcumin, concentration of labelled component",0.08 µM
same,"MIC (μM) against E. coli ATCC, combination of 3 compounds","[2]; KL-L9P + colistin + linezolid, concentration of labelled component",0.06 µM
same,"MIC (μM) against E. coli ATCC, combination of 3 compounds","[2]; KL-L9P + colistin + simvastatin, concentration of labelled component",0.06 µM
same,"MIC (μM) against E. coli ATCC, combination of two compounds","[2]; KL-L9P + colistin, concentration of labelled component",0.17 µM
same,MIC,"[2]; Tables 19-23, read-out: MIC (μM) against E. coli ATCC, 1 compound alone",1 µM
same,"MIC (μM) against E. coli ATCC, combination of two compounds","[2]; colistin + (S)-ibuprofen, concentration of labelled component",0.55 µM
same,"MIC (μM) against E. coli ATCC, combination of two compounds","[2]; colistin + cloxacillin, concentration of labelled component",0.63 µM
same,"MIC (μM) against E. coli ATCC, combination of two compounds","[2]; colistin + curcumin, concentration of labelled component",0.30 µM
same,"MIC (μM) against E. coli ATCC, combination of two compounds","[2]; colistin + linezolid, concentration of labelled component",0.60 µM
same,"MIC (μM) against E. coli ATCC, combination of two compounds","[2]; colistin + simvastatin, concentration of labelled component",0.25 µM
same,MIC of combination (μM): KL-L9P,[2]; concentration of KL-L9P in combination with labelled drug,2.40 µM
same,concentration killing E. coli in combination KL-L9P/colistin/linezolid,[2]; concentration of labelled component,50 nM
same,MIC of combination (μM): antibiotic,[2]; concentration of labelled drug in combination with KL-L9P,0.17 µM
same,MIC,"[2]; drug alone, <20% growth of positive control, read-out: MIC of antibiotic",1.63 µM
same,FICI of drug with KL-L9P,[2]; labelled drug + KL-L9P,0.26
same,FICIKL-L9P,[2]; labelled drug + KL-L9P,0.16
same,FICIantibiotic,[2]; labelled drug + KL-L9P,0.10
same,SYTOX Green DNA staining: ability to degrade or penetrate the inner wall,[3],easily stained DNA
same,"MIC (μM) against E. coli ATCC 25922, Colistin alone",[4],1.25 µM
KLLKLPKKLLKLLK [KL-L6P],"Fractional Inhibitory Concentration Index (FICI), Colistin & 1 μM peptide",[4],"0.83, Synergism"
same,"MIC (μM) against E. coli ATCC 25922, Peptide alone",[4],3 µM
same,MIC [μM] Against E. coli,[5],10 µM
same,MIC [μM] Against S. aureus,[6],>40 µM
LKKLLKLLKKPLKL [LK-L11P],"Fractional Inhibitory Concentration Index (FICI), Colistin & 1 μM peptide",[4],"0.83, Synergism"
same,"MIC (μM) against E. coli ATCC 25922, Peptide alone",[4],3 µM
same,MIC [μM] Against E. coli,[5],5 µM
same,MIC [μM] Against S. aureus,[6],>40 µM
LKKPPKLLKKLLKL [LK-L4PL5P],MIC [μM] Against E. coli,[5],5 µM
same,MIC [μM] Against S. aureus,[6],>40 µM
KLLKLLKPLLKLLK [KL-K8P],MIC [μM] Against E. coli,[5],2.5 µM
same,MIC [μM] Against S. aureus,[6],5.0 µM
KLPKLLKKLLKLLK [KL-L3P],MIC [μM] Against E. coli,[5],10 µM
same,MIC [μM] Against S. aureus,[6],20 µM
KPLKLLKKLLKLLK [KL-L2P],MIC [μM] Against E. coli,[5],5 µM
same,MIC [μM] Against S. aureus,[6],20 µM
KLLKLLPKLLKLLK [KL-K7P],MIC [μM] Against E. coli,[5],2.5 µM
same,MIC [μM] Against S. aureus,[6],5.0 µM
LKKLLKPLKKLLKL [LK-L7P],MIC [μM] Against E. coli,[5],2.5 µM
same,MIC [μM] Against S. aureus,[6],20 µM
LKKLLKLLKKPPKL [LK-L11PL12P],MIC [μM] Against E. coli,[5],2.5 µM
same,MIC [μM] Against S. aureus,[6],>40 µM
LKKLPKLPKKLLKL [LK-L5PL8P],MIC [μM] Against E. coli,[5],20 µM
same,MIC [μM] Against S. aureus,[6],>40 µM
CC[C@H](C)[C@H](NC(=O)CN)C(=O)NCC(=O)N[C@@H](C)C(=O)N[C@H](C(=O)N[C@@H](CC(C)C)C(=O)N[C@@H](CCCCN)C(=O)N[C@H](C(=O)N[C@@H](CC(C)C)C(=O)N[C@H](C(=O)N[C@H](C(=O)NCC(=O)N[C@@H](CC(C)C)C(=O)N1CCC[C@H]1C(=O)N[C@@H](C)C(=O)N[C@@H](CC(C)C)C(=O)N[C@H](C(=O)N[C@@H](CO)C(=O)N[C@@H](Cc1c[nH]c2ccccc12)C(=O)N[C@H](C(=O)N[C@@H](CCCCN)C(=O)N[C@@H](CCCNC(=N)N)C(=O)N[C@@H](CCCCN)C(=O)N[C@@H](CCCNC(=N)N)C(=O)N[C@@H](CCC(N)=O)C(=O)N[C@@H](CCC(N)=O)C(N)=O)[C@@H](C)CC)[C@@H](C)CC)[C@@H](C)O)[C@@H](C)O)C(C)C)C(C)C [Melittin],NPN fluorescence: touching/loosening the outer membrane,[1],high ability to increase NPN fluorescence
same,SYTOX Green DNA staining: ability to degrade or penetrate the inner wall,[3],have this ability
LKKLLKLPKKPLKL [LK-L8PL11P],MIC [μM] Against E. coli,[5],40 µM
same,MIC [μM] Against S. aureus,[6],>40 µM
LKKLLKPPKKLLKL [LK-L7PL8P],MIC of combination (μM): antibiotic (colistin),[2]; colistin concentration in combination with labelled peptide,0.09 µM
same,FICI of peptide with colistin,[2]; labelled peptide + colistin,0.3 and 0.34
same,FICIPeptide,[2]; labelled peptide + colistin,0.16
same,FICIcolistin / FICIantibiotic,[2]; labelled peptide + colistin,0.18
same,FICI of peptide with colistin and linezolid,[2]; [8],0.27
same,FICIPeptide,[2]; [8],0.07
same,FICIcolistin,[2]; [8],0.09
same,FICIlinezolid,[2]; [8],0.11
same,FICI of peptide with linezolid,[2]; labelled peptide + linezolid,0.53
same,FICIPeptide,[2]; labelled peptide + linezolid,0.26
same,FICIlinezolid,[2]; labelled peptide + linezolid,0.27
same,FICI of peptide with linezolid,"[2]; labelled peptide + linezolid, listed as LK-L7P/L8P",about 0.53
same,MIC of combination (μM): linezolid,[2]; linezolid concentration in combination with labelled peptide,22 µM
same,MIC of peptide,[2]; peptide alone,53 µM
same,MIC of combination (μM): peptide,[2]; peptide concentration in combination with linezolid,14 µM
same,MIC of combination (μM): colistin,[2]; [9],0.040 µM
same,MIC of combination (μM): linezolid,[2]; [9],5.9 µM
same,MIC of combination (μM): peptide,[2]; [9],4.7 µM
same,MIC [μM] Against E. coli,[5],40 µM
same,MIC [μM] Against S. aureus,[6],>40 µM
LKKLLKLLKKLPKL [LK-L12P],confocal image: membrane leakage / distribution of TAMRA-labeled peptide,[7],strongly induced leakage from the inner membrane and the outer membrane
same,MIC [μM] Against E. coli,[5],2.5 µM
same,MIC [μM] Against S. aureus,[6],10 µM
LKKLLKLLKPLLKL [LK-K10P],MIC [μM] Against E. coli,[5],5.0 µM
same,MIC [μM] Against S. aureus,[6],5.0 µM
KLLKLLKKLLKLLK,MIC [μM] Against E. coli,[5],20 µM
same,MIC [μM] Against S. aureus,[6],20 µM
